Test results reported in PubChem BioAssay (NCI).
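Protocol summary: plate cells (96-well), add compound at 5 concentrations, incubate 48 h, interpolate endpoints linearly. At the TGI there is no net growth.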

How the values were obtained:
Assay in all cases: NCI tumour cell line growth inhibition, 48 h
[1] = tested on: 786-0 renal
[2] = tested on: A498 renal
[3] = tested on: A549 NSCLC
[4] = tested on: ACHN renal
[5] = tested on: BT-549 breast
[6] = tested on: CAKI-1 renal
[7] = tested on: COLO 205 colon
[8] = tested on: DU-145 prostate
[9] = tested on: EKVX NSCLC
[10] = tested on: HCC-2998 colon
[11] = tested on: HCT-116 colon
[12] = tested on: HCT-15 colon
[13] = tested on: HOP-92 NSCLC
[14] = tested on: HT29 colon
[15] = tested on: K-562 leukemia
[16] = tested on: KM12 colon
[17] = tested on: M14 melanoma
[18] = tested on: MALME-3M melanoma
[19] = tested on: MCF7 breast
[20] = tested on: MDA-MB-231 breast
[21] = tested on: MDA-MB-435
[22] = tested on: MDA-N
[23] = tested on: MOLT-4 leukemia
[24] = tested on: NCI-H226 lung
[25] = tested on: NCI-H23 lung
[26] = tested on: NCI-H460 lung
[27] = tested on: NCI-H522 lung
[28] = tested on: NCI/ADR-RES ovarian
[29] = tested on: OVCAR-3 ovarian
[30] = tested on: OVCAR-4 ovarian
[31] = tested on: OVCAR-5 ovarian
[32] = tested on: PC-3 prostate
[33] = tested on: RPMI-8226 leukemia
[34] = tested on: RXF 393 renal
[35] = tested on: SF-268 CNS
[36] = tested on: SF-295 CNS
[37] = tested on: SK-MEL-2 melanoma
[38] = tested on: SK-MEL-28 melanoma
[39] = tested on: SK-MEL-5 melanoma
[40] = tested on: SK-OV-3 ovarian
[41] = tested on: SN12C renal
[42] = tested on: SNB-19 CNS
[43] = tested on: SNB-75 CNS
[44] = tested on: SW-620 colon
[45] = tested on: TK-10 renal
[46] = tested on: U251 CNS
[47] = tested on: UACC-257 melanoma
[48] = tested on: UACC-62 melanoma
[49] = tested on: UO-31 renal
[50] = tested on: CCRF-CEM leukemia
[51] = tested on: HL-60(TB) leukemia
[52] = tested on: HOP-62 NSCLC
[53] = tested on: HS 578T breast
[54] = tested on: IGROV1 ovarian
[55] = tested on: LOX IMVI melanoma
[56] = tested on: OVCAR-8 ovarian
[57] = tested on: SF-539 CNS
[58] = tested on: SR leukemia
[59] = tested on: T-47D breast

Clc1ccc(OCc2nnc(CCCCCCCCc3nnc(COc4ccc(Cl)cc4)o3)o2)cc1
TGI [1]: > 100 µM
TGI [2]: > 100 µM
TGI [3]: > 100 µM
TGI [4]: > 100 µM
TGI [5]: > 100 µM
TGI [6]: > 100 µM
TGI [7]: > 100 µM
TGI [8]: > 100 µM
TGI [9]: > 100 µM
TGI [10]: > 100 µM
TGI [11]: 28.2 µM
TGI [12]: > 100 µM
TGI [13]: > 100 µM
TGI [14]: > 100 µM
TGI [15]: > 100 µM
TGI [16]: > 100 µM
TGI [17]: > 100 µM
TGI [18]: > 100 µM
TGI [19]: > 100 µM
TGI [20]: > 100 µM
TGI [21]: > 100 µM
TGI [22]: > 100 µM
TGI [23]: > 100 µM
TGI [24]: > 100 µM
TGI [25]: > 100 µM
TGI [26]: > 100 µM
TGI [27]: > 100 µM
TGI [28]: > 100 µM
TGI [29]: > 100 µM
TGI [30]: > 100 µM
TGI [31]: > 100 µM
TGI [32]: > 100 µM
TGI [33]: > 100 µM
TGI [34]: > 100 µM
TGI [35]: > 100 µM
TGI [36]: > 100 µM
TGI [37]: > 100 µM
TGI [38]: > 100 µM
TGI [39]: > 100 µM
TGI [40]: > 100 µM
TGI [41]: > 100 µM
TGI [42]: > 100 µM
TGI [43]: > 100 µM
TGI [44]: > 100 µM
TGI [45]: > 100 µM
TGI [46]: > 100 µM
TGI [47]: > 100 µM
TGI [48]: > 100 µM
TGI [49]: > 100 µM

O=[N+]([O-])/C(Cl)=C(\Sc1ccccc1)C(Cl)=C(Cl)Cl
TGI [1]: 1.07 µM
TGI [2]: 3.1 µM
TGI [3]: 1.53 µM
TGI [4]: 3.07 µM
TGI [6]: 3.88 µM
TGI [50]: 0.667 µM
TGI [7]: 0.608 µM
TGI [8]: 3.08 µM
TGI [9]: 3.9 µM
TGI [10]: 3.84 µM
TGI [11]: 0.278 µM
TGI [12]: 1.5 µM
TGI [51]: 0.515 µM
TGI [52]: 3.68 µM
TGI [13]: 3.4 µM
TGI [53]: 1.8 µM
TGI [14]: 1.8 µM
TGI [54]: 2.62 µM
TGI [16]: 3.21 µM
TGI [55]: 0.97 µM
TGI [17]: 0.345 µM
TGI [18]: 1.97 µM
TGI [19]: 1.1 µM
TGI [20]: 0.628 µM
TGI [21]: 0.453 µM
TGI [22]: 0.761 µM
TGI [23]: 1.58 µM
TGI [24]: 4.47 µM
TGI [25]: 1.87 µM
TGI [26]: 3.22 µM
TGI [27]: 0.802 µM
TGI [28]: 0.551 µM
TGI [29]: 2.85 µM
TGI [30]: 3.65 µM
TGI [31]: 3.66 µM
TGI [56]: 0.351 µM
TGI [32]: 4.12 µM
TGI [34]: 2.6 µM
TGI [35]: 3.05 µM
TGI [36]: 8.92 µM
TGI [57]: 2.98 µM
TGI [38]: 2.76 µM
TGI [39]: 1.72 µM
TGI [40]: 13.3 µM
TGI [41]: 1.51 µM
TGI [42]: 4.26 µM
TGI [58]: 0.734 µM
TGI [59]: 4.88 µM
TGI [45]: 3.21 µM
TGI [46]: 3.69 µM
TGI [47]: 0.994 µM
TGI [48]: 1.98 µM
TGI [49]: 0.654 µM
